Measured values: US10815276B2, “Cell penetrating peptides and methods of making and using thereof” (Entrada Therapeutics, Inc., priority 2014, dated 2020)
Where two headings read alike, the source gives them in different places. Starred links: 1 amine or outer side, 2 acyl side, 3 side chain; linkers in the order of their positions; H or OH if unused. Positions of bridges follow the written chain, without caps; N, C: chain ends. Non-standard residues stand in square brackets, D forms with d. Residues, ends and D or L forms follow the SMILES beside them. *: point of attachment. Lys(5-FITC)NH2 = NC(=O)[C@H](CCCCNC(=S)Nc1ccc2c(c1)C(=O)OC21c2ccc(O)cc2Oc2cc(O)ccc21)N*; Trimesoyl = O=C(c1cc(C(=O)[*:2])cc(C(=O)[*:3])c1)[*:1]; Phe(4-Br) = N[C@@H](Cc1ccc(Br)cc1)C(=O)O; 2Nal = N[C@@H](Cc1ccc2ccccc2c1)C(=O)O; Pip = O=C(O)[C@@H]1CCCCN1; Dap = NC[C@H](N)C(=O)O; βAla = NCCC(=O)O; Sar = CNCC(=O)O

Key:
[1] = test system: cell type (e.g., HeLa cells); test: Cellular uptake efficiency of cyclic CPPs; format: cell-based; conditions: relative to cFΦR4 (290-1F, 100%)
Procedure: In particular embodiments, uptake efficiency is determined by comparing (i) the amount of a cyclic cell-penetrating peptide of the invention internalized by a cell type (e.g., HeLa cells) to (ii) the amount of c(FΦRRRRQ) (290-1F) internalized by the same cell type. To measure cellular uptake efficiency, the cell type may be incubated in the presence of a cell-penetrating peptide of the invention for a specified period of time (e.g., 30 minutes, 1 hour, 2 hours, etc.) after which the amount of the cell-penetrating peptide internalized by the cell is quantified. Separately, the same concentration of c(FΦRRRRQ) (290-1F) is incubated in the presence of the cell type over the same period of time, and the amount of the second peptide internalized by the cell is quantified. Quantification can be achieved by fluorescently labeling the cell-penetrating peptide (e.g., with a FTIC dye) and measuring the fluorescence intensity using techniques well-known in the art.
(§1) Also discussed herein are the CPP sequences in Table 16. All uptake/delivery efficiencies are in Table 17 are relative to that of cFΦR4 (290-1F, 100%). SUV1 are small unilamellar vesicles that mimic the neutral outer membrane of mammalian cells [45% phosphatidylcholine (PC), 20% phosphatidylethanolamine (PE), 20% sphingomyelin (SM), and 15% cholesterol (CHO)]. SUV2 are small unilamellar vesicles that mimic the negatively charged endosomal membrane of mammalian cells [50% PC, 20% PE, 10% phosphatidylinositol (PI), and 20% bis(monoacylglycerol)phosphate].

[2] = test system: SUV1 (vesicles that mimic the neutral outer membrane of mammalian cells); test: Fluorescence polarization membrane binding, SUV1
From the text: as §1
(§2) Measurements were carried out fluorescence polarization using FITC-labeled cyclic peptides against increasing concentrations of vesicles. Experiments were performed at pH 7.4 and 5.5 (pH inside late endosomes).

[3] = test system: SUV2 (vesicles that mimic the negatively charged endosomal membrane of mammalian cells); test: Fluorescence polarization membrane binding, SUV2
From the text: as §1, §2

Pin1 = molecular target: T1, Pin1 (Homo sapiens, UniProt Q13526, S16A/Y23A); test: Pin1 binding by FA (FITC-labeled peptides); conditions: FITC-labeled peptide, FA; read-out: KD
T1 construct: The full-length human S16A/Y23A mutant Pin1 was expressed and purified from E. coli; made in house

[4] = pH 7.4, read-out: Membrane Binding KD (mM) SUV1 pH 7.4
[5] = pH 5.5, read-out: Membrane Binding KD (mM) SUV2 pH 5.5
[6] = pH 7.4, read-out: Membrane Binding KD (mM) SUV2 pH 7.4

Molecule: N=C(N)NCCC[C@@H]1NC(=O)[C@H](Cc2ccccc2)NC(=O)[C@H](CCCNC(=N)N)NC(=O)[C@@H](CCCNC(=N)N)NC(=O)[C@H](CCC(=O)N[C@@H](CCCCNC(=S)Nc2ccc3c(c2)C(=O)OC32c3ccc(O)cc3Oc3cc(O)ccc32)C(N)=O)NC(=O)[C@H](CCCNC(=N)N)NC(=O)[C@H](Cc2ccc3ccccc3c2)NC1=O [Peptide 290-10F, c(rRFRΦRQ)] (cyclo([dR]RFR[2Nal]RE(Lys(5-FITC)NH2)))
- Uptake Efficiency (%) [1]: 52%
- Kd [2, 4]: 1.2 mM
- Kd [3, 5]: 0.17 mM
- Kd [3, 6]: 0.87 mM

Molecule: N=C(N)NCCC[C@@H]1NC(=O)[C@H](CCCNC(=N)N)NC(=O)[C@H](CCCNC(=N)N)NC(=O)[C@H](Cc2ccccc2)NC(=O)[C@H](CCC(=O)N[C@@H](CCCCNC(=S)Nc2ccc3c(c2)C(=O)OC32c3ccc(O)cc3Oc3cc(O)ccc32)C(N)=O)NC(=O)[C@H](Cc2ccc3ccccc3c2)NC(=O)[C@H](CCCNC(=N)N)NC1=O [Peptide 290-4F, c(FRRRRΦQ)] (cyclo(FRRRR[2Nal]E(Lys(5-FITC)NH2)))
- Uptake Efficiency (%) [1]: 59%
- Kd [2, 4]: 7.24 mM
- Kd [3, 5]: 0.11 mM
- Kd [3, 6]: 0.54 mM

Molecule: N=C(N)NCCC[C@@H]1NC(=O)[C@H](CCC(=O)N[C@@H](CCCCNC(=S)Nc2ccc3c(c2)C(=O)OC32c3ccc(O)cc3Oc3cc(O)ccc32)C(N)=O)NC(=O)[C@H](CCCNC(=N)N)NC(=O)[C@H](Cc2ccc3ccccc3c2)NC(=O)[C@H](CCCNC(=N)N)NC(=O)[C@H](Cc2ccccc2)NC(=O)[C@H](CCCNC(=N)N)NC1=O [Peptide 290-3F, c(RRFRΦRQ)] (cyclo(RRFR[2Nal]RE(Lys(5-FITC)NH2)))
- Uptake Efficiency (%) [1]: 163%
- Kd [2, 4]: 0.22 mM
- Kd [3, 5]: 0.26 mM
- Kd [3, 6]: 0.4 mM

Molecule: N=C(N)NCCC[C@@H]1NC(=O)[C@H](CCCNC(=N)N)NC(=O)[C@H](CCCNC(=N)N)NC(=O)[C@H](Cc2ccc3ccccc3c2)NC(=O)[C@H](Cc2ccccc2)NC(=O)[C@H](Cc2ccccc2)NC(=O)[C@H](CCC(=O)N[C@@H](CCCCNC(=S)Nc2ccc3c(c2)C(=O)OC32c3ccc(O)cc3Oc3cc(O)ccc32)C(N)=O)NC(=O)[C@H](CCCNC(=N)N)NC1=O [Peptide 290-7F] (cyclo(FF[2Nal]RRRRE(Lys(5-FITC)NH2)))
- Uptake Efficiency (%) [1]: 134%
- Kd [2, 4]: 1.65 mM
- Kd [3, 5]: 0.007 mM
- Kd [3, 6]: 0.11 mM

Molecule: N=C(N)NCCC[C@@H]1NC(=O)[C@H](Cc2ccc3ccccc3c2)NC(=O)[C@@H](Cc2ccccc2)NC(=O)[C@H](CCC(=O)N[C@@H](CCCCNC(=S)Nc2ccc3c(c2)C(=O)OC32c3ccc(O)cc3Oc3cc(O)ccc32)C(N)=O)NC(=O)[C@H](CCCNC(=N)N)NC(=O)[C@@H](CCCNC(=N)N)NC(=O)[C@H](CCCNC(=N)N)NC(=O)[C@@H](CCCNC(=N)N)NC1=O [Peptide 290-11F, c(fΦRrRrRQ)] (cyclo([2Nal]R[dR]R[dR]RE(Lys(5-FITC)NH2)[dF]))
- Uptake Efficiency (%) [1]: 542%
- Kd [2, 4]: 2.7 mM
- Kd [3, 5]: 0.019 mM
- Kd [3, 6]: 0.092 mM

Molecule: N=C(N)NCCC[C@@H]1NC(=O)[C@H](Cc2ccc3ccccc3c2)NC(=O)[C@@H](Cc2ccccc2)NC(=O)[C@H](CCC(=O)N[C@@H](CCCCNC(=S)Nc2ccc3c(c2)C(=O)OC32c3ccc(O)cc3Oc3cc(O)ccc32)C(N)=O)NC(=O)[C@@H](CCCNC(=N)N)NC(=O)[C@H](CCCNC(=N)N)NC(=O)[C@@H](CCCNC(=N)N)NC1=O [Peptide 290-9F, c(fΦRrRrQ)] (cyclo([dF][2Nal]R[dR]R[dR]E(Lys(5-FITC)NH2)))
- Uptake Efficiency (%) [1]: 602%
- Kd ([2]; pH 5.5, read-out: Membrane Binding KD (mM) SUV1 pH 5.5): 0.81 mM
- Kd [2, 4]: 1.2 mM
- Kd [3, 5]: 0.012 mM
- Kd [3, 6]: 0.033 mM

Molecule: C[C@H]1NC(=O)[C@H](CCCNC(=N)N)NC(=O)[C@H](CCCNC(=N)N)NC(=O)[C@H](Cc2ccc3ccccc3c2)NC(=O)[C@@H]2CCCCN2C(=O)[C@@H](CC(=O)O)NC(=O)CN(C)C(=O)[C@@H]2CCCN2C(=O)c2cc3cc(c2)C(=O)NC[C@H](NC1=O)C(=O)N[C@@H](Cc1ccccc1)C(=O)N[C@@H](Cc1ccc2ccccc2c1)C(=O)N[C@@H](CCCNC(=N)N)C(=O)N[C@@H](CCCNC(=N)N)C(=O)N[C@@H](CCCNC(=N)N)C(=O)N[C@@H](CCCNC(=N)N)C(=O)N[C@H](C(=O)N[C@@H](CCCCN)C(N)=O)CNC3=O [Peptide 19, bicyclo[Tm-(Pro-Sar-D-Asp-Pip-Nal-Arg-Arg-D-Ala)-Dap-(Phe-Nal-Arg-Arg-Arg-Arg-Dap)]-Lys] (P[Sar][dD][Pip][2Nal]RR[dA][Dap]F[2Nal]RRRR[Dap]K-NH2; linker N-9-16 via Trimesoyl; C-terminus assumed)
- Kd (Pin1): 0.72 ± 0.09 µM

Molecule: C[C@@H]1NC(=O)[C@H](CCCNC(=N)N)NC(=O)[C@H](Cc2ccc3ccccc3c2)NC(=O)[C@@H]2CCCCN2C(=O)[C@@H]([C@H](C)O)NC(=O)[C@H](Cc2ccc(Br)cc2)NC(=O)[C@@H](Cc2ccccc2)NC(=O)c2cc3cc(c2)C(=O)NC[C@H](NC(=O)[C@@H](Cc2ccccc2)NC1=O)C(=O)N[C@@H](Cc1ccccc1)C(=O)N[C@@H](Cc1ccc2ccccc2c1)C(=O)N[C@@H](CCCNC(=N)N)C(=O)N[C@@H](CCCNC(=N)N)C(=O)N[C@@H](CCCNC(=N)N)C(=O)N[C@@H](CCCNC(=N)N)C(=O)N[C@H](C(=O)N[C@@H](CCCCN)C(N)=O)CNC3=O [Peptide 32, bicyclo[Tm-(D-Phe-4-BrPhe-D-Thr-Pip-Nal-Arg-Ala-D-Phe)-Dap-(Phe-Nal-Arg-Arg-Arg-Arg-Dap)]-Lys] ([dF][Phe(4-Br)][dT][Pip][2Nal]RA[dF][Dap]F[2Nal]RRRR[Dap]K-NH2; linker N-9-16 via Trimesoyl; C-terminus assumed)
- Kd (Pin1): 1.78 ± 0.42 µM

Molecule: C[C@H]1NC(=O)[C@H](CC(=O)O)NC(=O)[C@H](CCCNC(=N)N)NC(=O)[C@H](Cc2ccc3ccccc3c2)NC(=O)[C@@H]2CCCCN2C(=O)[C@@H](CC(=O)O)NC(=O)CN(C)C(=O)[C@@H]2CCCN2C(=O)c2cc3cc(c2)C(=O)NC[C@H](NC1=O)C(=O)N[C@@H](Cc1ccccc1)C(=O)N[C@@H](Cc1ccc2ccccc2c1)C(=O)N[C@@H](CCCNC(=N)N)C(=O)N[C@@H](CCCNC(=N)N)C(=O)N[C@@H](CCCNC(=N)N)C(=O)N[C@@H](CCCNC(=N)N)C(=O)N[C@H](C(=O)N[C@@H](CCCCN)C(N)=O)CNC3=O [Peptide 20, bicyclo[Tm-(Pro-Sar-D-Asp-Pip-Nal-Arg-Asp-D-Ala)-Dap-(Phe-Nal-Arg-Arg-Arg-Arg-Dap)]-Lys] (P[Sar][dD][Pip][2Nal]RD[dA][Dap]F[2Nal]RRRR[Dap]K-NH2; linker N-9-16 via Trimesoyl; C-terminus assumed)
- Kd (Pin1): 3.19 ± 0.5 µM

Molecule: C[C@H]1NC(=O)CCNC(=O)[C@H](CCCNC(=N)N)NC(=O)[C@H](Cc2ccc3ccccc3c2)NC(=O)[C@@H]2CCCCN2C(=O)[C@@H](CC(=O)O)NC(=O)CN(C)C(=O)[C@@H]2CCCN2C(=O)c2cc3cc(c2)C(=O)NC[C@H](NC1=O)C(=O)N[C@@H](Cc1ccccc1)C(=O)N[C@@H](Cc1ccc2ccccc2c1)C(=O)N[C@@H](CCCNC(=N)N)C(=O)N[C@@H](CCCNC(=N)N)C(=O)N[C@@H](CCCNC(=N)N)C(=O)N[C@@H](CCCNC(=N)N)C(=O)N[C@H](C(=O)N[C@@H](CCCCN)C(N)=O)CNC3=O [Peptide 14, bicyclo[Tm-(Pro-Sar-D-Asp-Pip-Nal-Arg-β-Ala-D-Ala)-Dap-(Phe-Nal-Arg-Arg-Arg-Arg-Dap)]-Lys] (P[Sar][dD][Pip][2Nal]R[βAla][dA][Dap]F[2Nal]RRRR[Dap]K-NH2; linker N-9-16 via Trimesoyl; C-terminus assumed)
- Kd (Pin1): 1.75 ± 0.18 µM

Molecule: bicyclo[Tm-(D-4-Phe-Fpa-D-Ile-Pip-Nal-Arg-Ala-D-Phe)-Dap-(Phe-Nal-Arg-Arg-Arg-Arg-Dap)]-Lys [Peptide 39]
- Kd (Pin1): 0.46 ± 0.17 µM

Molecule: C[C@@H]1NC(=O)[C@H](CCCNC(=N)N)NC(=O)[C@H](Cc2ccc3ccccc3c2)NC(=O)[C@@H]2CCCCN2C(=O)[C@@H]([C@H](C)O)NC(=O)[C@H](Cc2ccccc2)NC(=O)[C@@H](Cc2ccccc2)NC(=O)c2cc3cc(c2)C(=O)NC[C@H](NC(=O)[C@@H](Cc2ccccc2)NC1=O)C(=O)N[C@@H](Cc1ccccc1)C(=O)N[C@@H](Cc1ccc2ccccc2c1)C(=O)N[C@@H](CCCNC(=N)N)C(=O)N[C@@H](CCCNC(=N)N)C(=O)N[C@@H](CCCNC(=N)N)C(=O)N[C@@H](CCCNC(=N)N)C(=O)N[C@H](C(=O)N[C@@H](CCCCN)C(N)=O)CNC3=O [Peptide 28, bicyclo[Tm-(D-Phe-Phe-D-Thr-Pip-Nal-Arg-Ala-D-Phe)-Dap-(Phe-Nal-Arg-Arg-Arg-Arg-Dap)]-Lys] ([dF]F[dT][Pip][2Nal]RA[dF][Dap]F[2Nal]RRRR[Dap]K-NH2; linker N-9-16 via Trimesoyl; C-terminus assumed)
- Kd (Pin1): 1.26 ± 0.28 µM
